Read-outs that look alike come from different tables or passages of the source. One block for each molecule: values may come before it.
Tests used:
[1] = tested on: AU565 (breast cancer ER−/PR−, her2−nue+); test: Cell proliferation assay, AU565; assay type: cell-based
Experimental: Cells: AU565 (breast cancer ER^−/PR^−, her2^−nue^+) • 1. Cells were resuspended in media containing 10% FBS and 2× gentamicin. Resuspended cells were transferred to an assay plate (100 μL aliquots; 5,200 cells/well). • 2. test compound(s) were serially diluted in assay media. Aliquots of 100 μLof the test compound solution was added to the resuspended cells, creating a total volume of 200 μL. • 3. Plates were incubated at 37 C for 91 hours. • 4. 20 μL of Promega Substrate CellTiter 96 Aqueous One Solution Reagent was added to each well. • 5. Plates were incubated at 37 C and read at 490 nm.

[2] = biological target: eIF4E/eIF4G interaction (Homo sapiens, UniProt P06730); test: Fluorescence polarization (FP) assay of eIF4E/eIF4G interaction; assay type: binding
Experimental: The effect of the bound compound on the activity of eIF4e was further addressed using a Fluorescence Polarization (FP) assay. The FP assay was used to monitor the eIF4E/eIF4G interaction. The eIF4E/eIF4G complex was exposed to Structure 10, and the dissociation of eIF4G from eIF4E was measured using the FP assay.
18 amino acid FITC-labeled 4G peptide (Moerke, N. et al., Cell, 128:257-67, 2007).
Compounds as 12.5 mM solutions in DMSO
A master mixture of 20 nM peptide, 400 μM recombinant […] in NMR buffer was made. 240 μL of this master mix was transferred to a separate tube and 3.2 μL of DMSO was added. 30 μL aliquots of this mixture was then added to each of six wells of 384-well black plate. These are the maximum polarization wells. The minimum polarization wells were determined using peptide only at a concentration of 20 nM. The experimental wells were created by adding 3.2 μL of each 12.5 mM solution of a test compound to the master mixture. The compound mixtures were serially diluted to create a six point dose response curve (with six different concentrations of each test compound).
The triplicate averages of the readings were determined. […] The activity of compound at each concentration was determined by comparing the FP signal in the presence of compound to the control (no compound) value. The percent inhibition is =100−((FP compound/FP control)×100).

[3] = tested on: CRL-2813 human melanoma xenografts; test: CRL-2813 human melanoma xenografts, protein expression (immunostaining); assay type: in vivo, mice
Experimental: • 1. CRL-2813 cancer cells were grown to obtain ≈5×10^6 cells for each tumor. • 2. Cells were harvested and washed in PBS. • 3. Harvested and washed cells were resuspended in 50% Matrigel™/medium at a density of ≈5×10^6 cells in 100 μL. • 4. 100 μL of the cell suspension was injected subcutaneously • 5. Tumors were grown to ≈150 mm^3 (approx. 2 weeks). • 1. Mice were randomly distributed to treatment and control groups and observed daily. • 2. A test compound or vehicle alone was injected twice daily with at least 10 hrs time interval between doses • Note: Vehicle: corn oil. Drug solution: 35 mg/mL of compound first dissolved in ethanol, mixed with corn oil followed by ethanol evaporation. Dosage: each dose=125 μL vehicle or drug suspension i.p. • 3. Tumor volume was measured weekly. • 4. At the conclusion of experiment, mice were sacrificed, and tumors were removed and weighed. • 5. Remove tumor and weigh • 6. The removed tumors were fixed in formalin solution or flash frozen and processed for histology/immunocytochemistry, or pull-down.
4EGI-1 inhibits expression of oncogenic proteins in melanoma tumors. CRL-2813 human melanoma xenografts were immunostained with antibodies specific for cyclin D1, cyclin E, c-myc, Bcl-2, VEGF or PCNA (FIG. 13). The bar graph is the quantification of immunostaining data (FIG. 14).

[4] = tested on: polysomes; test: Polysome profile; assay type: cell-based; conditions: sucrose gradient, FIG. 11
Experimental: Cells, plated in 140 mm culture dishes; in mid log phase of growth (4-5 plates per treatment. Test compounds as 40 mM master solutions in DMSO Lysis buffer: 15 mM Tris pH 7.4, 15 mM MgCl2, 150 mM NaCl, 1% TritonX-100, 100 μg/mL cycloheximide, 1 mg/mL Heparin. Polysome buffer: 15 mM Tris pH7.4, 15 mM MgCl2, 150 mM NaCl, 100 μg/mL cycloheximide. • 1. Cells were incubated with the desired concentrations of each compound for 2 hours. • 2. Cells were incubated with 100 μg/mL cycloheximide in media for 5 min at 37 C, after which the media was removed from the late, and the plate was put on ice. • 3. Cells were washed twice with 5 mL PBS+100 μg/mL CHX. • 4. Cells were harvested, resuspended in 375 μl of LSB with 1 mM DTT and 100 U/mL RNAsin. • 5. 125 μL of lysis buffer was added, and the cells were subjected to 10 strokes in a homgenizer. • 6. The lysed cells were spun to remove cellular debris, and the supernatant was transferred to fresh tubes. • 7. 15 μL of 5M NaCl and 50 μL of 10 mg/mL Heparin was added. A 20 μL aliquot was taken and stored. The remainder of the supernatant mixture was taken to a volume of 1 mL and the OD260/280 was read. • 8. Aliquots of the supernatant mixture were then applied to a 15-50% sucrose gradient and spun for 105 minutes. The sucrose gradient was then fractionated and the OD254 was measured. […]

[5] = tested on: HeLa Cells; test: HeLa Cells FQ IC50; assay type: cell-based
Experimental: Exposed tryptophan side chains are measured in a spectrometer. Tryptophan, when excited at 280 nm, emits light at 350 nm. The degree to which tryptophan emissions are quenched is a measure of binding of a test compound to eIF4E, as tryptophan side chains become “buried” upon compound binding.
HeLa cells were transfected with a bicistronic dual luciferase construct (2×EMCV Luc Plasmid-firefly and EMCV IRES dependent Renilla luciferase). One reporter construct was CAP-dependent, and the other was not. The cells were treated with DMSO in the presence or absence of various compounds described herein for 10 hours (compounds shown are in 50 μM serial dilutions). Cells were evaluated for Luc activity according to the Promega Dual Glo manufacturer instructions.

[6] = biological target: eIF4E (Homo sapiens, UniProt P06730); test: Binding to eIF4E demonstrated by NMR; conditions: FIG. 7
[7] = Compound solubility in DMSO; assay type: physicochemical
[8] = tested on: AU565; test: SBH cell AU565; assay type: cell-based; conditions: AU565 cells
[9] = AU-565, 91 hours, read-out: ED50 (μM), anti-proliferative activity against AU-565
[10] = AU-565 cells, read-out: AU-565 EC50
[11] = fluorescence polarization, some cells give words

Sequence of eIF4E/eIF4G interaction (P06730 whole entry, species assumed): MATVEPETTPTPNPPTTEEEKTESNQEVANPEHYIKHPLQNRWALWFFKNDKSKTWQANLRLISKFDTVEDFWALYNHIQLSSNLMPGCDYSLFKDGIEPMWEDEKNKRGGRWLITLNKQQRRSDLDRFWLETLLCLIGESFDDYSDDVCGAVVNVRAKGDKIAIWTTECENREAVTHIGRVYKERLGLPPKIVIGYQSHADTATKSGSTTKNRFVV
Sequence of eIF4E (P06730 whole entry, species assumed): as above

- EC50 [1, 9]: 5.6 to 8.4 µM
- EC50 [1, 10]: 9.1 µM
SMILES: COc1cccc(-c2nc(-n3nc(C(=O)O)c4cc(C(F)(F)F)ccc43)sc2C(C)C)c1 [Structure 2]
- % Growth Inhibition/μM ([1]; AU-565, at 40 μM): 79/40%

- Compound Solubility DMSO [7]: complete
- EC50 [8]: 9 to 14 µM
SMILES: COc1cccc(-c2nc(-n3nc(C(=O)c4nn[nH]n4)c4cc(C(F)(F)F)ccc43)sc2C(C)C)c1 [Structure 13]

- EC50 [1, 10]: 8.5 to 12.8 µM
SMILES: CCc1sc(-n2nc(C(=O)O)c3cc(C(F)(F)F)ccc32)nc1-c1cccc(OC)c1 [Structure 17]

- Compound Solubility DMSO [7]: half/less
SMILES: COC(=O)CNC(=O)c1nn(-c2nc(-c3cccc(OC)c3)c(C(C)C)s2)c2ccc(C(F)(F)F)cc12 [Structure 45]
- SBH cell AU565 (μM) [8]: low

- Compound Solubility DMSO [7]: little/no
- EC50 [8]: 18 to 28 µM
SMILES: COC(=O)CN(C)C(=O)c1nn(-c2nc(-c3cccc(OC)c3)c(C(C)C)s2)c2ccc(C(F)(F)F)cc12 [Structure 46]

- Compound Solubility DMSO [7]: complete
SMILES: CCOC(=O)CNC(=O)c1nn(-c2nc(-c3cccc(OC)c3)c(C(C)C)s2)c2ccc(C(F)(F)F)cc12 [Structure 47]
- SBH cell AU565 (μM) [8]: none

- Compound Solubility DMSO [7]: half/less
- EC50 [8]: 12 to 18 µM
SMILES: CCOC(=O)CN(C)C(=O)c1nn(-c2nc(-c3cccc(OC)c3)c(C(C)C)s2)c2ccc(C(F)(F)F)cc12 [Structure 48]

The remaining lines, values behind:

SMILES: CCc1sc(-n2nc(C(=O)O)c3cc(C(F)(F)F)ccc32)nc1-c1cccc(OC)c1 [Structure 1]
- EC50 [1, 9]: 8.5 to 12.8 µM
- % Growth Inhibition/μM ([1]; AU-565, at 40 μM): 70/40%

SMILES: COc1cccc(-c2nc(-n3nc(C(=O)O)c4cc(C#N)ccc43)sc2C(C)C)c1 [Structure 3]
- EC50 [1, 10]: 16 to 25 µM
- activity in fluorescence polarization assays [2]: showed activity

SMILES: O=C(O)/C(Cc1ccccc1[N+](=O)[O-])=N/Nc1nc(-c2ccc(Cl)c(Cl)c2)cs1 [Structure 4EGI-1, 4EGI-1]
- expression of oncogenic proteins in melanoma tumors ([3]; cyclin D1, cyclin E, c-myc, Bcl-2, VEGF or PCNA immunostaining): inhibits
- housekeeping proteins (e.g., actin and tubulin) ([3]; xenograft model, FIG. 14): unaffected
- translation of mRNA for growth-promoting and oncogenic proteins ([3]; xenograft model, FIG. 14): down-regulates
- polysome density [4]: noticeable difference

SMILES: O=C(O)/C(Cc1ccccc1[N+](=O)[O-])=N/Nc1nc(-c2ccc(Cl)c(Cl)c2)cs1 [Structure 4EGI-1E, reference compound]
- EC50 [1, 9]: 21 to 32 µM
- % Growth Inhibition/μM ([1]; AU-565, at 40 μM): 60/40%
- IC50 [5]: 48.1 µM

SMILES: O=C(O)/C(Cc1ccccc1[N+](=O)[O-])=N\Nc1nc(-c2ccc(Cl)c(Cl)c2)cs1 [Structure 4EGI-1Z, reference compound]
- EC50 [1, 9]: 4.8 to 7.1 µM
- % Growth Inhibition/μM ([1]; AU-565, at 10 μM): 30/10%
- IC50 [5]: 26.6 µM

SMILES: COc1cccc(-c2nc(Cn3nc(C(=O)O)c4cc(C(F)(F)F)ccc43)sc2C(C)C)c1 [Structure 9]
- EC50 [2, 11]: 24 to 36 µM

SMILES: COc1cccc(-c2nc(-n3cc(C(=O)N4CCNCC4)c4cc(C(F)(F)F)ccc43)sc2C(C)C)c1 [Structure 10]
- EC50 ([1]; Homo sapiens, AU565, AU-565, 91 hours, read-out: ED50 (μM), anti-proliferative activity against AU-565): 1.2 to 1.8 µM
- inhibition at 3.1 µM ([1]; Homo sapiens, AU565, AU-565, at 3.1 μM, read-out: % Growth Inhibition/μM): 85%
- Binding to eIF4E by NMR [6]: demonstrated

SMILES: COc1cccc(-c2nc(-n3nc(CC(=O)O)c4cc(Cl)ccc43)sc2C(C)C)c1 [Structure 14]
- Compound Solubility DMSO [7]: complete
- EC50 [8]: 21 to 31 µM

SMILES: COc1cccc(-c2nc(-n3nc(CC(=O)NCC(=O)O)c4cc(Cl)ccc43)sc2C(C)C)c1 [Structure 15]
- FP EC50 (μM) [2, 11]: some
- Compound Solubility DMSO [7]: complete
- EC50 [8]: 28 to 41 µM

SMILES: COc1cccc(-c2nc(-n3nc(CC(=O)N(C)CC(=O)O)c4cc(Cl)ccc43)sc2C(C)C)c1 [Structure 16]
- FP EC50 (μM) [2, 11]: good
- Compound Solubility DMSO [7]: complete
- EC50 [8]: 5.3 to 8 µM

SMILES: COc1ccc(C[C@H](N)C(=O)N[C@H]2[C@@H](O)[C@H](n3cnc4c(N(C)C)ncnc43)O[C@@H]2CO)cc1 [puromycin]
- polysome density [4]: noticeable difference

From patent US9409901B2, “Compositions and methods for treating or preventing diseases or disorders associated with misregulated EIF4E” (Bantam Pharmaceutical, LLC, priority 2012, dated 2016)
